Experimental data from patent US20080274892A1, “Novel Haloalkylsulfonanilide Derivative, Herbicide, and Method of Use Thereof” (priority 2005, published 2008).

Assays:
[1] = test system: paddy rice plant (cultivar: Nihonbare); test: Test Example 3: phytotoxicity test for transplanted paddy rice plant; assay type: in vivo; details: transplanted rice, 21 days after treatment
Procedure, shortened: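 Clay loam soil was placed in a 75 cm^2 plastic pot and flooded to a water depth of 5 cm. Two Nihonbare paddy rice plants at the two-leaf stage were transplanted 1 cm deep and grown in a hot house. After treatment, pots stayed in the hot house for 21 days, and phytotoxicity was then graded against an untreated control.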

bulrush [2] = test: Test Example 4: low dosage test for rice paddy weeds; assay type: in vivo, Scirpus juncoides; details: 300 g/ha as an active ingredient; plants treated at the one leaf stage; 21 days after treatment; vs untreated control
Text: (§1) The standard of judgment for herbicidal efficacy (degree of growth inhibition) and phytotoxicity 4 . . . 90%-100% of herbicidal efficacy or phytotoxicity 3 . . . 70%-89% of herbicidal efficacy or phytotoxicity 2 . . . 40%-69% of herbicidal efficacy or phytotoxicity 1 . . . 1%-39% of herbicidal efficacy or phytotoxicity 0 . . . 0% of herbicidal efficacy or phytotoxicity
A 75 cm^2 plastic pot was filled with soil (clay loam) and planted seeds of bulrush which is a rice paddy weed. After covering the top with 75 cm^3 soil, the pot was filled with water so that the soil submerged under 5 cm depth of water and kept in a hot house. The test plants, at the one leaf stage, were treated with the solution of a formulation containing the compound of the present invention as an active ingredient at the predetermined effective dosage (300 g/ha as an active ingredient). The pots were kept in a hot house for 21 days after the treatment and the herbicidal efficacy was investigated and evaluated according to the standard in Test Example 1 by comparing with the untreated control. Further, as a comparative compound, the compound No. 6-28 described in the JP-A-2004-107322 was used.

false pimpernel [3] = test: Test Example 2: herbicidal efficacy on rice paddy weeds post-emergence; assay type: in vivo, Lindernia pyxidaria; details: post-emergence, one leaf stage, 21 days after treatment
bulrush [4] = test: Test Example 1: herbicidal efficacy on rice paddy weeds pre-emergence; assay type: in vivo, Scirpus juncoides; details: 21 days
[5] = test system: transplanted paddy rice plant and Bulrush; test: Test Example 5: selectivity between transplanted paddy rice plant and weeds; assay type: in vivo; details: (highest dosage with no phytotoxicity to paddy rice)/(lowest dosage with effective level 4 on Bulrush); rice 3000-100 g/ha, Bulrush 300-10 g/ha; 21 days
Description: as §1
Phytotoxicity test for transplanted paddy rice plants was carried out, as in Test Example 3, by the treatment of 3000, 1000, 300 and 100 (g/ha of the active ingredient) dosage, and herbicidal test to weed post-emergence was carried out to Burlush seeded as in Test Example 2 treating at 300, 100, 30 and 10 (g/ha) dosage. The pots were kept in a hot house for 21 days after the treatment, and the phytotoxicity and the herbicidal efficacy was investigated and evaluated according to the standard in Test Example 1 by comparing with the untreated control. […] Further, as a comparative compound, the compound No. 6-28 described in the JP-A-2004-107322 was used.

bulrush [6] = test: Test Example 2: herbicidal efficacy on rice paddy weeds post-emergence; assay type: in vivo, Scirpus juncoides; details: post-emergence, one leaf stage, 21 days after treatment
false pimpernel [7] = test: Test Example 1: herbicidal efficacy on rice paddy weeds pre-emergence; assay type: in vivo, Lindernia pyxidaria; details: 21 days
barnyard glass = test: Test Example 2: herbicidal efficacy on rice paddy weeds post-emergence; assay type: in vivo, Echinochloa crus-galli; details: post-emergence, one leaf stage, 21 days after treatment
Procedure, shortened: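 Plastic pots of 75 cm^2 were filled with clay loam soil and sown with barnyard glass and bulrush seeds, then topped with 75 cm^3 soil containing false pimpernel seeds. The pots were flooded to 5 cm water depth and held in a hot house. Twenty-one days after treatment, herbicidal efficacy was graded against an untreated control.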

[8] = dosage 1000 g/ha, treated 5 days after transplantation

SMILES	Phytotoxicity to paddy rice [1, 8]	Herbicide effect to Bulrush (bulrush [2])	False pimpernel post (herbicidal efficacy grade) (false pimpernel [3]; dosage 1000 g/ha)	Bulrush pre (herbicidal efficacy grade) (bulrush [4]; dosage 1000 g/ha)	Selective Index [5]	Bulrush post (herbicidal efficacy grade) (bulrush [6]; dosage 1000 g/ha)	False pimpernel pre (herbicidal efficacy grade) (false pimpernel [7]; dosage 1000 g/ha)	Burnyard grass post (herbicidal efficacy grade) (barnyard glass; dosage 1000 g/ha)	Phytotoxicity to paddy rice ([1]; dosage 300 g/ha)	False pimpernel post (herbicidal efficacy grade) (false pimpernel [3]; dosage 300 g/ha)	Bulrush pre (herbicidal efficacy grade) (bulrush [4]; dosage 300 g/ha)	Bulrush post (herbicidal efficacy grade) (bulrush [6]; dosage 300 g/ha)	False pimpernel pre (herbicidal efficacy grade) (false pimpernel [7]; dosage 300 g/ha)	Burnyard grass post (herbicidal efficacy grade) (barnyard glass; dosage 300 g/ha)
CCC1CN(Cc2ccccc2N(C(=O)CC(C)C)S(=O)(=O)C(F)(F)F)C(=O)O1 (racemic) [1-53]	0 (0% of herbicidal efficacy or phytotoxicity)	3 (70%-89% of herbicidal efficacy or phytotoxicity)	4 (90%-100% of herbicidal efficacy or phytotoxicity)	4 (90%-100% of herbicidal efficacy or phytotoxicity)	10	4 (90%-100% of herbicidal efficacy or phytotoxicity)	4 (90%-100% of herbicidal efficacy or phytotoxicity)	4 (90%-100% of herbicidal efficacy or phytotoxicity)	–	–	–	–	–	–
COC(=O)N(c1ccccc1CN1CC(C)OC1=O)S(=O)(=O)C(F)(F)F (racemic) [1-54]	0 (0% of herbicidal efficacy or phytotoxicity)	4 (90%-100% of herbicidal efficacy or phytotoxicity)	–	4 (90%-100% of herbicidal efficacy or phytotoxicity)	33.3	4 (90%-100% of herbicidal efficacy or phytotoxicity)	4 (90%-100% of herbicidal efficacy or phytotoxicity)	4 (90%-100% of herbicidal efficacy or phytotoxicity)	–	–	–	–	–	–
CCC1(C)CN(Cc2ccccc2NS(=O)(=O)C(F)(F)F)C(=O)O1 (racemic) [1-59]	–	4 (90%-100% of herbicidal efficacy or phytotoxicity)	–	–	3.3	–	–	–	3 (70%-89% of herbicidal efficacy or phytotoxicity)	4 (90%-100% of herbicidal efficacy or phytotoxicity)	4 (90%-100% of herbicidal efficacy or phytotoxicity)	4 (90%-100% of herbicidal efficacy or phytotoxicity)	4 (90%-100% of herbicidal efficacy or phytotoxicity)	3 (70%-89% of herbicidal efficacy or phytotoxicity)
CCC1(C)CN(Cc2ccccc2N(C(=O)OCC(C)C)S(=O)(=O)C(F)(F)F)C(=O)O1 (racemic) [1-60]	3 (70%-89% of herbicidal efficacy or phytotoxicity)	4 (90%-100% of herbicidal efficacy or phytotoxicity)	4 (90%-100% of herbicidal efficacy or phytotoxicity)	4 (90%-100% of herbicidal efficacy or phytotoxicity)	≧30	4 (90%-100% of herbicidal efficacy or phytotoxicity)	4 (90%-100% of herbicidal efficacy or phytotoxicity)	4 (90%-100% of herbicidal efficacy or phytotoxicity)	–	–	–	–	–	–
CC(C)C1(C)CN(Cc2ccccc2NS(=O)(=O)C(F)(F)F)C(=O)O1 (racemic) [1-101]	1 (1%-39% of herbicidal efficacy or phytotoxicity)	4 (90%-100% of herbicidal efficacy or phytotoxicity)	4 (90%-100% of herbicidal efficacy or phytotoxicity)	4 (90%-100% of herbicidal efficacy or phytotoxicity)	10	4 (90%-100% of herbicidal efficacy or phytotoxicity)	4 (90%-100% of herbicidal efficacy or phytotoxicity)	4 (90%-100% of herbicidal efficacy or phytotoxicity)	–	–	–	–	–	–
O=C1OC2(CCC2)CN1Cc1ccccc1NS(=O)(=O)C(F)(F)F [1-87]	–	3 (70%-89% of herbicidal efficacy or phytotoxicity)	–	–	3	–	–	–	1 (1%-39% of herbicidal efficacy or phytotoxicity)	4 (90%-100% of herbicidal efficacy or phytotoxicity)	4 (90%-100% of herbicidal efficacy or phytotoxicity)	4 (90%-100% of herbicidal efficacy or phytotoxicity)	4 (90%-100% of herbicidal efficacy or phytotoxicity)	–
CCC1(CC)CN(Cc2ccccc2N(C(=O)OC)S(=O)(=O)C(F)(F)F)C(=O)O1 [1-109]	1 (1%-39% of herbicidal efficacy or phytotoxicity)	4 (90%-100% of herbicidal efficacy or phytotoxicity)	4 (90%-100% of herbicidal efficacy or phytotoxicity)	4 (90%-100% of herbicidal efficacy or phytotoxicity)	≧30	4 (90%-100% of herbicidal efficacy or phytotoxicity)	4 (90%-100% of herbicidal efficacy or phytotoxicity)	–	–	–	–	–	–	–
COCC1(C)CN(Cc2ccccc2N(C(=O)OC)S(=O)(=O)C(F)(F)F)C(=O)O1 (stereo not drawn) [1-147]	–	4 (90%-100% of herbicidal efficacy or phytotoxicity)	–	–	10	–	–	–	1 (1%-39% of herbicidal efficacy or phytotoxicity)	4 (90%-100% of herbicidal efficacy or phytotoxicity)	4 (90%-100% of herbicidal efficacy or phytotoxicity)	4 (90%-100% of herbicidal efficacy or phytotoxicity)	4 (90%-100% of herbicidal efficacy or phytotoxicity)	–
COC(=O)N(c1ccccc1CN1CC(C(F)(F)F)OC1=O)S(=O)(=O)C(F)(F)F (stereo not drawn) [1-151]	1 (1%-39% of herbicidal efficacy or phytotoxicity)	3 (70%-89% of herbicidal efficacy or phytotoxicity)	4 (90%-100% of herbicidal efficacy or phytotoxicity)	4 (90%-100% of herbicidal efficacy or phytotoxicity)	3	4 (90%-100% of herbicidal efficacy or phytotoxicity)	4 (90%-100% of herbicidal efficacy or phytotoxicity)	–	–	–	–	–	–	–
O=C1OC(C2CC2)(C2CC2)CN1Cc1ccccc1NS(=O)(=O)C(F)(F)F [1-170]	2 (40%-69% of herbicidal efficacy or phytotoxicity)	4 (90%-100% of herbicidal efficacy or phytotoxicity)	4 (90%-100% of herbicidal efficacy or phytotoxicity)	4 (90%-100% of herbicidal efficacy or phytotoxicity)	10	4 (90%-100% of herbicidal efficacy or phytotoxicity)	4 (90%-100% of herbicidal efficacy or phytotoxicity)	–	–	–	–	–	–	–
COC(=O)N(c1ccccc1CN1CC(C2CC2)(C2CC2)OC1=O)S(=O)(=O)C(F)(F)F [1-172]	1 (1%-39% of herbicidal efficacy or phytotoxicity)	4 (90%-100% of herbicidal efficacy or phytotoxicity)	4 (90%-100% of herbicidal efficacy or phytotoxicity)	4 (90%-100% of herbicidal efficacy or phytotoxicity)	10	4 (90%-100% of herbicidal efficacy or phytotoxicity)	4 (90%-100% of herbicidal efficacy or phytotoxicity)	–	–	–	–	–	–	–
COC1N(Cc2ccccc2NS(=O)(=O)C(F)(F)F)C(=O)OC1(C)C (stereo not drawn) [Compound No. 1-195, 4-methoxy-5,5-dimethyl-3-[2-(trifluoromethanesulfonylamino)benzyl]oxazolidin-2-one]	–	–	–	–	–	–	–	–	2 (40%-69% of herbicidal efficacy or phytotoxicity)	3 (70%-89% of herbicidal efficacy or phytotoxicity)	4 (90%-100% of herbicidal efficacy or phytotoxicity)	4 (90%-100% of herbicidal efficacy or phytotoxicity)	1 (1%-39% of herbicidal efficacy or phytotoxicity)	1 (1%-39% of herbicidal efficacy or phytotoxicity)
